Laboratory results taken from patent US11858878B2, “Gemini surfactant composition and method for treating subterranean rock” (KING FAHD UNIVERSITY OF PETROLEUM AND MINERALS, priority 2018, dated 2024).

Legend:
[1] = aqueous solution; cited from earlier work
[2] = Surface tension measurements by pendant drop method in water (cmc and surface properties); assay type: physicochemical; conditions: for Amin (nominal surface area per molecule) / Γmax × 10^6 (highest surface access at the air-water interface): air-water interface; for πcmc (ability to lower the surface tension of water) / γcmc (surface tension at cmc) / cmc (critical micelle concentration) / surface tension at all investigated concentrations (rank among surfactants): water; for γcmc (surface tension at cmc) / cmc (critical micelle concentration): pendant drop; for cmc (critical micelle concentration): intersection of two lines in plot of surface tension versus concentration; for surface tension at all investigated concentrations (rank among surfactants): FIGS. 9 and 10
Procedure: Surface Properties. Surface tensions were identified with the help of pendant drop method at 20° C. using Biolin Scientific Attension instrument. Water was used as a solvent for all surface tension experiments. The reported data points of all surface tension measurements are average equilibrium values. The critical micelle concentration (cmc) was measured from the intersection point of two lines in the plot of surface tension versus concentration.
Surface Tension Measurements. […] The surface properties can be related to the different chain length, spacer length, spacer rigidity, and to the presence of different counterions in the gemini surfactants.
The gemini surfactant ability to lower the surface tension of water (πcmc), highest surface access (rmax) at the interface of air-water, as well as nominal surface area per molecule (Amin) was given in Table 1. The method used to calculate these properties was also given in our previous publication; Hussain S S, Animashaun M A, Kamal M S, Ullah N, Hussein I A, Sultan A S (2016) Synthesis, Characterization and Surface Properties of Amidosulfobetaine Surfactants Bearing Odd-Number Hydrophobic Tail. J Surfactants Deterg 19 (2):413-420, incorporated herein by reference in its entirety.

[3] = Long-term thermal stability: aging of aqueous solutions, followed by NMR and FTIR; assay type: physicochemical; conditions: aqueous solution, sealed tube, 90° C., 10 days
Procedure: Long-Term Thermal Stability. Long-term thermal stability was assessed using a novel approach based on an aging technique. Aqueous solutions of gemini surfactants (1)-(6) were aged in a sealed tube for 10 days at 90° C. NMR (^1H, ^13C) and FTIR instruments were used to identify the changes in the structure of the surfactants after aging.
The short-term and long-term thermal stability of the synthesized gemini surfactants (1)-(6) were investigated. […] (FIG. 2). The long-term thermal stability of the gemini surfactants (1)-(6) was examined using a novel approach based on aging technique where the aqueous solutions of surfactants were aged in a sealed tube at 90° C. for 10 days. NMR (^1H, ^13C) and FTIR instruments were used to study the change in the structure of the surfactants after aging at a different period. […]
Similarly, the olefinic protons in the spacer group of 10 days aged sample of gemini surfactants 1 (FIG. 3) were also detected. […]
According to ^13C NMR spectra of the 10 days aged samples of gemini surfactants (1) and (6)(FIGS. 4 and 6), the methyl [—(CH2)n—CH3)] and methylene carbon in hydrophobic tail of gemini surfactants (1) and (6) were clearly identified. […] The olefinic carbon in hydrophobic tail of gemini surfactant (6) (FIG. 6) as well as the olefinic carbon in spacer group of gemini surfactant 1 (FIG. 4) were also detected. […]

CCCCCCCCCCCCOS(=O)(=O)[O-].[Na+] [sodium dodecyl sulfate (SDS), sodium dodecyl sulfate]
temperature of prolonged heating that causes decomposition [1]: ≥ 40 °C

CCCCCCCC/C=C\CCCCCCCC(=O)NCCC[N+](C)(C)C/C=C\C[N+](C)(C)CCCNC(=O)CCCCCCC/C=C\CCCCCCCC.[Cl-].[Cl-] [Surfactant 4]
Amin (nominal surface area per molecule) [2]: 1.01 nm^2 | Γmax × 10^6 (highest surface access at the air-water interface) [2]: 1.64 mol m^−2 | πcmc (ability to lower the surface tension of water) [2]: 34.77 mN m^−1 | γcmc (surface tension at cmc) [2]: 37.23 mN m^−1 | cmc (critical micelle concentration) [2]: 0.000291 mol/L

CCCCCCCC/C=C\CCCCCCCC(=O)NCCC[N+](C)(C)CCCCCC[N+](C)(C)CCCNC(=O)CCCCCCC/C=C\CCCCCCCC.[Br-].[Br-] [Surfactant 6]
long-term thermal stability (structure change by NMR, FTIR after aging) [3]: no structural changes occurred | Amin (nominal surface area per molecule) [2]: 0.70 nm^2 | Γmax × 10^6 (highest surface access at the air-water interface) [2]: 2.38 mol m^−2 | πcmc (ability to lower the surface tension of water) [2]: 41.66 mN m^−1 | surface tension at all investigated concentrations (rank among surfactants) [2]: least surface tension | γcmc (surface tension at cmc) [2]: 30.34 mN m^−1 | cmc (critical micelle concentration) [2]: 7.7e-05 mol/L

CCCCCCCCCCCC(=O)NCCC[N+](C)(C)C/C=C\C[N+](C)(C)CCCNC(=O)CCCCCCCCCCC.[Cl-].[Cl-] [Surfactant 2]
Amin (nominal surface area per molecule) [2]: 1.05 nm^2 | Γmax × 10^6 (highest surface access at the air-water interface) [2]: 1.60 mol m^−2 | πcmc (ability to lower the surface tension of water) [2]: 33.88 mN m^−1 | surface tension at all investigated concentrations (rank among surfactants) [2]: highest surface tension | γcmc (surface tension at cmc) [2]: 38.12 mN m^−1

CCCCCCCCCCCC(=O)NCCC[N+](C)(C)C/C=C/C[N+](C)(C)CCCNC(=O)CCCCCCCCCCC.[Br-].[Br-] [Surfactant 1]
long-term thermal stability (structure change by NMR, FTIR after aging) [3]: no structural changes occurred | Amin (nominal surface area per molecule) [2]: 0.91 nm^2 | Γmax × 10^6 (highest surface access at the air-water interface) [2]: 1.81 mol m^−2 | πcmc (ability to lower the surface tension of water) [2]: 35.77 mN m^−1 | γcmc (surface tension at cmc) [2]: 36.23 mN m^−1 | cmc (critical micelle concentration) [2]: 0.000256 mol/L

CCCCCCCC/C=C\CCCCCCCC(=O)NCCC[N+](C)(C)CCCC[N+](C)(C)CCCNC(=O)CCCCCCC/C=C\CCCCCCCC.[Br-].[Br-] [Surfactant 5]
Amin (nominal surface area per molecule) [2]: 0.73 nm^2 | Γmax × 10^6 (highest surface access at the air-water interface) [2]: 2.26 mol m^−2 | πcmc (ability to lower the surface tension of water) [2]: 39.08 mN m^−1 | γcmc (surface tension at cmc) [2]: 32.92 mN m^−1 | cmc (critical micelle concentration) [2]: 0.000105 mol/L

CCCCCCCC/C=C\CCCCCCCC(=O)NCCC[N+](C)(C)C/C=C/C[N+](C)(C)CCCNC(=O)CCCCCCC/C=C\CCCCCCCC.[Br-].[Br-] [Surfactant 3]
Amin (nominal surface area per molecule) [2]: 0.86 nm^2 | Γmax × 10^6 (highest surface access at the air-water interface) [2]: 1.92 mol m^−2 | πcmc (ability to lower the surface tension of water) [2]: 36.33 mN m^−1 | γcmc (surface tension at cmc) [2]: 35.67 mN m^−1 | cmc (critical micelle concentration) [2]: 0.000158 mol/L
